This note sets out measurements from ChEMBL document CHEMBL1201862, “PubChem BioAssay data set” (2004).

Molecules are shown by their SMILES.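 Five compound concentrations were applied to cells in 96-well plates for 48 hours; endpoints were derived by simple linear interpolation of the resulting dose-response curve. Abbreviation: GI50, concentration required for 50% inhibition of growth.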 Active and inactive are the calls of the source. Cut-off read from the data, not from the text of the source: active = GI50 up to about 1.1 µM and inactive = higher. Some results are limits rather than exact numbers.

Test systems include HOP-62; SF-268; HL-60; 786-0; NCI-H460; EKVX; OVCAR-3; LOX IMVI; UACC-62; RXF 393; MDA-N; CCRF-CEM; KM12; HOP-92; UACC-257; SNB-75; SF-539; COLO 205; T47D.
Common to all, as to assay: NCI tumour cell line growth inhibition, 48 h

On to `NCC1CCCCC1.O=C(O)NCC1CCCCC1`, for which the GI50 with HOP-62 is 17.5 µM (inactive); in the assay with SF-268, 12.8 µM (inactive); in the assay on HL-60 it was 15.6 µM (inactive); in the assay with 786-0, 24.1 µM (inactive); in the assay on NCI-H460, 13.4 µM (inactive); in the assay with EKVX it was 30.1 µM (inactive). In addition, the GI50 with OVCAR-3 was 4.89 µM (inactive); in the assay with LOX IMVI, 15.3 µM (inactive); in the assay on UACC-62, 18.7 µM (inactive); with RXF 393 it was 19.1 µM (inactive); in the assay on MDA-N, 15.9 µM (inactive); in the assay on CCRF-CEM, 15.7 µM (inactive). Further, the GI50 was 12.1 µM (inactive) in the assay on KM12, 3.95 µM (inactive) with HOP-92, 22.2 µM (inactive) in the assay on UACC-257 and 13.7 µM (inactive) in the assay with SNB-75.

As to `Cc1nc(N)nc(S)c1CCC(=O)O`, the GI50 in the assay with HOP-62, in the assay with SF-268, in the assay with HL-60, with 786-0, in the assay with NCI-H460 and with EKVX was > 100 µM (inactive) throughout. For the same compound, the GI50 in the assay on OVCAR-3, with LOX IMVI, in the assay on UACC-62, in the assay on RXF 393, in the assay on MDA-N and in the assay on CCRF-CEM was > 100 µM (inactive) in each case. Moreover, the GI50 in the assay with KM12, in the assay on SF-539, in the assay on COLO 205, in the assay with HOP-92 and with UACC-257 was > 100 µM (inactive) each time.

As to `NCCSC1(O)C(=O)c2ccccc2-c2ccccc21` (configuration not stated), the GI50 with HOP-62 is 1.53 µM (inactive); with SF-268 it was 1.5 µM (inactive); in the assay with HL-60, 1.09 µM (active); with 786-0, 1.63 µM (inactive); in the assay with NCI-H460, 1.78 µM (inactive); with EKVX, 1.66 µM (inactive). Further, the GI50 in the assay on OVCAR-3 was < 0.01 µM (active); with LOX IMVI, 0.256 µM (active); with UACC-62 it was 1.64 µM (inactive); in the assay with RXF 393, 1.64 µM (inactive); with CCRF-CEM it was 0.158 µM (active); with KM12, 1.63 µM (inactive). In addition, the GI50 was 1.15 µM (inactive) with SF-539; 2.1 µM (inactive) with T47D; 1.85 µM (inactive) with COLO 205; 0.435 µM (active) in the assay with UACC-257; 0.553 µM (active) in the assay on SNB-75.

Turning to `Nc1nc(N)c2c(-c3ccccc3)ccnc2n1`, the GI50 in the assay with HOP-62 is > 100 µM (inactive); in the assay with SF-268, > 100 µM (inactive); in the assay on HL-60, > 100 µM (inactive); in the assay with 786-0, 67.1 µM (inactive); in the assay with NCI-H460, > 100 µM (inactive); in the assay with EKVX, 18.5 µM (inactive). In addition, the GI50 with OVCAR-3, with LOX IMVI, in the assay with UACC-62, with RXF 393, with MDA-N and in the assay with CCRF-CEM was > 100 µM (inactive) in each case. In addition, the values for the GI50 with COLO 205, in the assay on HOP-92 and with UACC-257 were > 100 µM (inactive), 81.7 µM (inactive) and > 100 µM (inactive), respectively.

In the case of `O=C(OCc1ccccc1CN1CCOCC1)c1cccc(Br)c1`, the GI50 in the assay on HOP-62 is 53.2 µM (inactive); in the assay with SF-268 it was 62.8 µM (inactive); in the assay with 786-0, 74.8 µM (inactive); in the assay on NCI-H460, 83.8 µM (inactive); in the assay on EKVX, 34.5 µM (inactive); in the assay on OVCAR-3, 17.7 µM (inactive). Also, the GI50 with LOX IMVI was 31.3 µM (inactive); in the assay with UACC-62, 33.6 µM (inactive); in the assay on RXF 393, 78.7 µM (inactive); in the assay with SF-539 it was 43.6 µM (inactive); in the assay with T47D, 18.7 µM (inactive); with COLO 205, 39.4 µM (inactive). Moreover, the GI50 in the assay with HOP-92 is 43.6 µM (inactive); in the assay on UACC-257 it was 24.6 µM (inactive); in the assay with SNB-75 it was 31.2 µM (inactive).

On to `CCCCCCCCCCCCc1ccsc1-c1ccc(-c2ccc(-c3sc(-c4cc(CCCCCCCCCCCC)c(-c5ccc(-c6ccc(-c7sccc7CCCCCCCCCCCC)s6)s5)s4)cc3CCCCCCCCCCCC)s2)s1`, for which the GI50 in the assay with HOP-62 was > 100 µM (inactive); in the assay on SF-268, > 100 µM (inactive); in the assay with HL-60, 19.3 µM (inactive); in the assay on 786-0 it was > 100 µM (inactive); with NCI-H460, > 100 µM (inactive); with EKVX, > 100 µM (inactive). The GI50 in the assay with OVCAR-3 is > 100 µM (inactive); in the assay with UACC-62 it was > 100 µM (inactive); with RXF 393, 83.4 µM (inactive); in the assay on CCRF-CEM, 38.3 µM (inactive); in the assay with KM12, > 100 µM (inactive); in the assay with SF-539 it was > 100 µM (inactive). For the same compound, the GI50 in the assay with T47D, with COLO 205, in the assay with HOP-92, with UACC-257 and in the assay on SNB-75 was > 100 µM (inactive) in each case.

As for `C[C@@H](CO)OCOCc1ccccc1`, the GI50 with HOP-62, in the assay on SF-268, in the assay with HL-60, in the assay on 786-0, with NCI-H460 and with OVCAR-3 was > 100 µM (inactive) in each case. In addition, the GI50 in the assay with LOX IMVI, with UACC-62, in the assay with RXF 393, in the assay with CCRF-CEM, in the assay with KM12 and in the assay on SF-539 was > 100 µM (inactive) each time. Moreover, the GI50 in the assay on COLO 205, in the assay on HOP-92, in the assay on UACC-257 and in the assay on SNB-75 was > 100 µM (inactive) throughout.

Take `CC(=O)N1C(=O)C(=O)c2cc(Cl)ccc21`: the GI50 in the assay on SF-268, with HL-60, in the assay on 786-0, in the assay with NCI-H460, in the assay with EKVX and in the assay on OVCAR-3 was > 100 µM (inactive) each time. Moreover, the GI50 in the assay with LOX IMVI is > 100 µM (inactive); in the assay with UACC-62 it was > 100 µM (inactive); with RXF 393, > 100 µM (inactive); with CCRF-CEM, > 10 µM (inactive); in the assay with KM12 it was > 100 µM (inactive); in the assay with SF-539 it was > 100 µM (inactive). In addition, the GI50 with COLO 205 and in the assay on SNB-75 was > 100 µM (inactive) throughout.

`CCCCCCCCCCCCCCCCCC(=O)Nc1ccn(C2CCC(COP(=O)(O)O)O2)c(=O)n1` (configuration not stated): the GI50 in the assay on HOP-62, in the assay on SF-268, with 786-0, with EKVX, in the assay on OVCAR-3 and with LOX IMVI was > 100 µM (inactive) throughout. In addition, the GI50 with UACC-62, in the assay with RXF 393, in the assay on CCRF-CEM, in the assay with KM12, in the assay with SF-539 and with T47D was > 100 µM (inactive) in each case. Besides, the GI50 in the assay on COLO 205, in the assay with HOP-92, with UACC-257 and with SNB-75 was > 100 µM (inactive) throughout.

Take `C[Si]12OCCCN(CCO1)CCO2`: the GI50 with SF-268, in the assay on 786-0, with NCI-H460, in the assay on EKVX, in the assay with OVCAR-3 and with UACC-62 was > 100 µM (inactive) in each case. Moreover, the GI50 in the assay with RXF 393, in the assay on CCRF-CEM, in the assay on KM12, in the assay with SF-539, in the assay on COLO 205 and with HOP-92 was > 100 µM (inactive) in each case. Further, the GI50 in the assay on UACC-257 and in the assay on SNB-75 was > 100 µM (inactive) each time.

`CC1=CC2=C(C#N)C(=O)OC2(C)C(c2ccccc2)C1` (configuration not stated): the GI50 in the assay with HOP-62, in the assay on SF-268, in the assay with 786-0, in the assay on NCI-H460, with EKVX and in the assay with OVCAR-3 was > 100 µM (inactive) in each case. Besides, the GI50 in the assay on LOX IMVI was > 100 µM (inactive); in the assay with UACC-62, > 100 µM (inactive); in the assay with MDA-N it was > 100 µM (inactive); in the assay on KM12, > 100 µM (inactive); in the assay on SF-539, > 100 µM (inactive); in the assay with HOP-92, 87.5 µM (inactive). In addition, the GI50 in the assay with UACC-257 is > 100 µM (inactive); in the assay on SNB-75, 16.2 µM (inactive).

For the compound `Cn1cnc([N+](=O)[O-])c1Sc1nnnn1-c1ccccc1`, the GI50 in the assay with HOP-62 is > 100 µM (inactive); in the assay on SF-268 it was 19.5 µM (inactive); in the assay with 786-0, 16.7 µM (inactive); in the assay on NCI-H460 it was 16.5 µM (inactive); in the assay on EKVX, 16 µM (inactive); in the assay on OVCAR-3 it was 13.6 µM (inactive). In addition, the GI50 was 5.65 µM (inactive) with LOX IMVI; 13.9 µM (inactive) with UACC-62; 2.39 µM (inactive) in the assay with CCRF-CEM; 17.4 µM (inactive) in the assay on KM12; 12.2 µM (inactive) in the assay on SF-539; 8.09 µM (inactive) in the assay on COLO 205. Besides, the GI50 in the assay with HOP-92 is 2.72 µM (inactive); in the assay with UACC-257, 13.7 µM (inactive); with SNB-75, 16.4 µM (inactive).

For the compound `C[C@@H]1CC[C@]2(C(=O)O)CC[C@]3(C)C(=CC[C@@H]4[C@@]5(C)CC[C@H](O)C(C)(C)[C@@H]5CC[C@]43C)[C@@H]2[C@]1(C)O` [POMOLIC ACID], the GI50 in the assay on SF-268 is 17.1 µM (inactive); with HL-60, 4.35 µM (inactive); in the assay with 786-0, 5.38 µM (inactive); in the assay with NCI-H460 it was 5.41 µM (inactive); in the assay on EKVX, 18.3 µM (inactive); in the assay with OVCAR-3, 18.6 µM (inactive). Moreover, the GI50 in the assay on LOX IMVI was 15.7 µM (inactive); in the assay with UACC-62, 3.49 µM (inactive); with CCRF-CEM, 10.3 µM (inactive); in the assay on KM12 it was 12.4 µM (inactive); in the assay on SF-539 it was 3.25 µM (inactive); with T47D, 16.4 µM (inactive). Moreover, the GI50 in the assay on COLO 205 is 16.4 µM (inactive); in the assay with HOP-92 it was 4.45 µM (inactive); with UACC-257, 5.42 µM (inactive); in the assay on SNB-75, 13.5 µM (inactive).
